Data from Sander's compilation of Henry's law constants.

Assays:
[1] = Henry solubility constant Hcp at 298.15 K (mol/(m3 Pa))
[2] = Henry solubility constant Hcp at 293 K (mol/(m3 Pa))
[3] = reference: Kames and Schurath (1995)
[4] = reference: Warner et al. (1980)
[5] = reference: De Maagd et al. (1998)
[6] = reference: Dohnal and Fenclová (1995)
[7] = reference: Sheikheldin et al. (2001)
[8] = reference: Chiang et al. (1998)
[9] = reference: Yurteri et al. (1987)
[10] = reference: Blatchley et al. (1992)
[11] = reference: Schuhfried et al. (2011)
[12] = reference: Vitenberg et al. (1975)
[13] = reference: Bissonette et al. (1990)
[14] = reference: Pearson and McConnell (1975)
[15] = reference: Wolfenden and Williams (1983)
[16] = reference: Scharlin and Battino (1994)
[17] = reference: Wen and Muccitelli (1979)

## CCc1cccc(C)c1N(C(=O)CCl)C(C)COC (configuration not stated) [metolachlor]
[1]; reference: Feigenbrugel et al. (2004a)
  Henry solubility constant Hcp: 210
[1]; reference: Lau et al. (1995)
  Henry solubility constant Hcp: 570
[2]; reference: Rice et al. (1997b)
  Henry solubility constant Hcp at 293 K: 130

## CCCC(=O)OO[N+](=O)[O-] [nitro butaneperoxoate]
[2]; [3]
  Henry solubility constant Hcp at 293 K: 0.023

## c1ccc2c(c1)Cc1ccccc1-2 [2,3-benzindene]
[1]; reference: Bamford et al. (1999b)
  Henry solubility constant Hcp: 0.079
[1]; [4]
  Henry solubility constant Hcp: 0.084
[2]; [5]
  Henry solubility constant Hcp at 293 K: 0.15

## Cc1cccc(O)c1C [1-hydroxy-2,3-dimethylbenzene]
[1]; [6]
  Henry solubility constant Hcp: 10
[2]; [7]
  Henry solubility constant Hcp at 293 K: 9.3

## Oc1ccc(Cl)cc1Cl [2,4-dichlorophenol]
[1]; reference: Tabai et al. (1997)
  Henry solubility constant Hcp: 6.6
[2]; [7]
  Henry solubility constant Hcp at 293 K: 3.4

## COP(=S)(OC)Oc1ccc([N+](=O)[O-])cc1 [methylparathion]
[1]; reference: Metcalfe et al. (1980)
  Henry solubility constant Hcp: 99
[2]; reference: Rice et al. (1997b)
  Henry solubility constant Hcp at 293 K: 260

## ClC1=C(Cl)[C@]2(Cl)[C@@H]3[C@@H]4C[C@@H]([C@H]5O[C@@H]45)[C@@H]3[C@@]1(Cl)C2(Cl)Cl [dieldrin]
[1]; [4]
  Henry solubility constant Hcp: 0.17
[2]; reference: Slater and Spedding (1981)
  Henry solubility constant Hcp at 293 K: 0.34

## Clc1ccc(Cl)cc1 [1,4-dichlorobenzene]
[1]; reference: Li et al. (2008)
  Henry solubility constant Hcp: 0.0033
[1]; [4]
  Henry solubility constant Hcp: 0.0036
[2]; [8]
  Henry solubility constant Hcp at 293 K: 0.0025
[2]; [9]
  Henry solubility constant Hcp at 293 K: 0.0052

## OCl [hypochlorous acid]
[1]; reference: Hanson and Ravishankara (1991)
  Henry solubility constant Hcp: 4.7
[1]; reference: Holzwarth et al. (1984)
  Henry solubility constant Hcp: 6
[1]; reference: Imagawa (1950)
  Henry solubility constant Hcp: 12
[1]; reference: Ourisson and Kastner (1939)
  Henry solubility constant Hcp: 6.4
[2]; [10]
  Henry solubility constant Hcp at 293 K: 9.1
[2]; reference: McCoy et al. (1990)
  Henry solubility constant Hcp at 293 K: 9

## CCSSCC [diethyl disulfide]
[1]; [11]
  Henry solubility constant Hcp: 0.0037
[2]; [12]
  Henry solubility constant Hcp at 293 K: 0.0047

## C=C(Cl)Cl [1,1-dichloroethene]
[1]; [13]
  Henry solubility constant Hcp: 0.00034
[1]; reference: Ervin et al. (1980)
  Henry solubility constant Hcp: 0.00014
[1]; reference: Gossett (1987)
  Henry solubility constant Hcp: 0.00038
[1]; [4]
  Henry solubility constant Hcp: 0.00066
[2]; [8]
  Henry solubility constant Hcp at 293 K: 0.00044
[2]; [14]
  Henry solubility constant Hcp at 293 K: 6.6e-05
[2]; [9]
  Henry solubility constant Hcp at 293 K: 0.00013

## CCOP(=O)(OCC)OCC [triethylphosphate]
[2]; [15]
  Henry solubility constant Hcp at 293 K: 270

## OO [hydrogen peroxide]
[1]; reference: Huang and Chen (2010)
  Henry solubility constant Hcp: 1100
[1]; reference: Hwang and Dasgupta (1985)
  Henry solubility constant Hcp: 670
[1]; reference: Lind and Kok (1994)
  Henry solubility constant Hcp: 990
[1]; reference: O’Sullivan et al. (1996)
  Henry solubility constant Hcp: 820
[1]; reference: Rivera-Rios (2018)
  Henry solubility constant Hcp: 1200
[1]; reference: Zhou and Lee (1992)
  Henry solubility constant Hcp: 850
[2]; reference: Yoshizumi et al. (1984)
  Henry solubility constant Hcp at 293 K: 1400

## CC(C)C(=O)OO[N+](=O)[O-] [peroxy-isobutyryl nitrate]
[2]; [3]
  Henry solubility constant Hcp at 293 K: 0.0099

## OBr [hypobromous acid]
[2]; [10]
  Henry solubility constant Hcp at 293 K: > 19
[2]; reference: McCoy et al. (1990)
  Henry solubility constant Hcp at 293 K: 19

## Oc1ccccc1Cl [2-hydroxychlorobenzene]
[1]; reference: Tabai et al. (1997)
  Henry solubility constant Hcp: 3.6
[2]; [7]
  Henry solubility constant Hcp at 293 K: 1.5

## Cc1ccc(O)c(C)c1 [1-hydroxy-2,4-dimethylbenzene]
[1]; [6]
  Henry solubility constant Hcp: 4.9
[2]; [7]
  Henry solubility constant Hcp at 293 K: 6.6

## NCCO [ethanolamine]
[1]; reference: Kim et al. (2008)
  Henry solubility constant Hcp: 4200
[2]; reference: Bone et al. (1983)
  Henry solubility constant Hcp at 293 K: 60000

## CN(C)N=O [N-nitrosodimethylamine]
[1]; reference: Klein (1982)
  Henry solubility constant Hcp: 6.1
[1]; reference: Thompson et al. (2018)
  Henry solubility constant Hcp: 0.29
[2]; reference: Haruta et al. (2011)
  Henry solubility constant Hcp at 293 K: 4.1

## CCOP(=S)(OCC)Oc1nc(Cl)c(Cl)cc1Cl [chlorpyrifos]
[2]; reference: Rice et al. (1997b)
  Henry solubility constant Hcp at 293 K: 3.1

## c1ccc2ccccc2c1 [naphthalene]
[1]; reference: Alaee et al. (1996)
  Henry solubility constant Hcp: 0.023
[1]; reference: Bobadilla et al. (2003)
  Henry solubility constant Hcp: 0.04
[1]; reference: Mackay et al. (1979)
  Henry solubility constant Hcp: 0.02
[1]; reference: Schwarz and Wasik (1977)
  Henry solubility constant Hcp: 0.022
[1]; reference: Southworth (1979)
  Henry solubility constant Hcp: 0.018
[1]; reference: Webster et al. (1985)
  Henry solubility constant Hcp: 0.026
[2]; [5]
  Henry solubility constant Hcp at 293 K: 0.022
[2]; [9]
  Henry solubility constant Hcp at 293 K: 0.027

## ClC(Cl)=C(Cl)C(Cl)=C(Cl)Cl [hexachlorobutadiene]
[1]; [4]
  Henry solubility constant Hcp: 0.00096
[2]; [14]
  Henry solubility constant Hcp at 293 K: 0.0004

## CSC [dimethyl sulfide]
[1]; reference: Barcellos da Rosa et al. (2003)
  Henry solubility constant Hcp: 0.0064
[1]; reference: Bruneel et al. (2016)
  Henry solubility constant Hcp: 0.0047
[1]; reference: Coquelet and Richon (2005)
  Henry solubility constant Hcp: 0.0052
[1]; reference: Dacey et al. (1984)
  Henry solubility constant Hcp: 0.0055
[1]; reference: De Bruyn et al. (1995b)
  Henry solubility constant Hcp: 0.0047
[1]; reference: Gershenzon et al. (2001)
  Henry solubility constant Hcp: 0.0047
[1]; reference: Iliuta and Larachi (2005a)
  Henry solubility constant Hcp: 0.0055
[1]; reference: Lovelock et al. (1972)
  Henry solubility constant Hcp: 0.0016
[1]; reference: Marin et al. (1999)
  Henry solubility constant Hcp: 0.016
[1]; reference: Pollien et al. (2003)
  Henry solubility constant Hcp: 0.0049
[1]; [11]
  Henry solubility constant Hcp: 0.0046
[1]; reference: Straver and de Loos (2005)
  Henry solubility constant Hcp: 0.0049
[1]; reference: Wong and Wang (1997)
  Henry solubility constant Hcp: 0.0042
[2]; [12]
  Henry solubility constant Hcp at 293 K: 0.0061

## CCC(=O)OO[N+](=O)[O-] [peroxypropionyl nitrate]
[1]; reference: Easterbrook et al. (2023)
  Henry solubility constant Hcp: 0.016
[2]; [3]
  Henry solubility constant Hcp at 293 K: 0.029

## CC(Cl)(Cl)Cl [1,1,1-trichloroethane]
[1]; [13]
  Henry solubility constant Hcp: 0.00051
[1]; reference: Chen et al. (2012)
  Henry solubility constant Hcp: 0.00054
[1]; reference: Ervin et al. (1980)
  Henry solubility constant Hcp: 0.00027
[1]; reference: Gossett (1987)
  Henry solubility constant Hcp: 0.00059
[1]; reference: Gossett et al. (1985)
  Henry solubility constant Hcp: 0.00057
[1]; reference: Hunter-Smith et al. (1983)
  Henry solubility constant Hcp: 0.00076
[1]; reference: Lincoff and Gossett (1984)
  Henry solubility constant Hcp: 0.00059
[1]; reference: Munz and Roberts (1987)
  Henry solubility constant Hcp: 0.00058
[1]; reference: Robbins et al. (1993)
  Henry solubility constant Hcp: 0.00055
[1]; reference: Turner et al. (1996)
  Henry solubility constant Hcp: 0.00048
[1]; reference: Vane and Giroux (2000)
  Henry solubility constant Hcp: 0.00062
[1]; [4]
  Henry solubility constant Hcp: 0.002
[2]; [8]
  Henry solubility constant Hcp at 293 K: 0.00071
[2]; [14]
  Henry solubility constant Hcp at 293 K: 0.00029
[2]; [9]
  Henry solubility constant Hcp at 293 K: 0.00063

## Cc1ccc2ccccc2c1 [2-methylnaphthalene]
[2]; [5]
  Henry solubility constant Hcp at 293 K: 0.022

## c1ccc2c(c1)-c1cccc3cccc-2c13 [benzo[jk]fluorene]
[2]; [5]
  Henry solubility constant Hcp at 293 K: 0.91

## COP(=O)(OC)OC [phosphoric acid, trimethyl ester]
[2]; [15]
  Henry solubility constant Hcp at 293 K: 1400

## CCCOP(=O)(OCCC)OCCC [tripropyl phosphate]
[2]; [15]
  Henry solubility constant Hcp at 293 K: 15

## CCCC=O [butanal]
[1]; reference: Buttery et al. (1965)
  Henry solubility constant Hcp: 0.064
[1]; reference: Ji and Evans (2007)
  Henry solubility constant Hcp: 0.089

## Cc1ccnc(C)c1 [2,4-dimethylpyridine]
[1]; reference: Hawthorne et al. (1985)
  Henry solubility constant Hcp: 0.99

## FC(F)(F)F [tetrafluoromethane]
[1]; reference: Ashton et al. (1968)
  Henry solubility constant Hcp: 2.1e-06
[1]; reference: Cosgrove and Walkley (1981)
  Henry solubility constant Hcp: 2.1e-06
[1]; reference: Morrison and Johnstone (1954)
  Henry solubility constant Hcp: 2e-06
[1]; reference: Park et al. (1982)
  Henry solubility constant Hcp: 2.1e-06
[1]; reference: Reichl (1995)
  Henry solubility constant Hcp: 2e-06
[1]; [16]
  Henry solubility constant Hcp: 2.1e-06
[1]; reference: Scharlin and Battino (1995)
  Henry solubility constant Hcp: 2.1e-06
[1]; [17]
  Henry solubility constant Hcp: 2e-06

## COP(=O)(OC)C(O)C(Cl)(Cl)Cl (configuration not stated)
[1]; reference: Kawamoto and Urano (1989)
  Henry solubility constant Hcp: > 810

## Brc1ccc(Br)c(Br)c1 [1,2,4-tribromobenzene]
[1]; reference: Kuramochi et al. (2004)
  Henry solubility constant Hcp: 0.031

## CC(N)CO (configuration not stated) [2-amino-1-propanol]
[1]; reference: Nguyen (2013)
  Henry solubility constant Hcp: 1300

## Cc1ccccc1O [1-hydroxy-2-methylbenzene]
[1]; [6]
  Henry solubility constant Hcp: 5.6
[1]; reference: Feigenbrugel et al. (2004b)
  Henry solubility constant Hcp: 4.2
[1]; reference: Harrison et al. (2002)
  Henry solubility constant Hcp: 11
[1]; reference: Parsons et al. (1972)
  Henry solubility constant Hcp: 8.2

## CCCC(C)O (configuration not stated) [2-pentanol]
[1]; reference: Butler et al. (1935)
  Henry solubility constant Hcp: 0.67
[1]; reference: Fenclová et al. (2010)
  Henry solubility constant Hcp: 0.71

## N#Cc1ccccc1 [benzenenitrile]
[1]; reference: Lee et al. (2013)
  Henry solubility constant Hcp: 0.29

## CN1CCNCC1 [N-methylpiperazine]
[1]; reference: Nguyen (2013)
  Henry solubility constant Hcp: 1800

## OC(C(F)(F)F)C(F)(F)F [1,1,1,3,3,3-hexafluoro-2-propanol]
[1]; reference: Rochester and Symonds (1973)
  Henry solubility constant Hcp: 0.24

## CCCOC=O [propyl methanoate]
[1]; reference: Kutsuna et al. (2005)
  Henry solubility constant Hcp: 0.026

## CC1=CC=C(C(C)C)CC1 [1-methyl-4-(1-methylethyl)-1,3-cyclohexadiene]
[1]; reference: Copolovici and Niinemets (2005)
  Henry solubility constant Hcp: 0.00029
[1]; reference: Schuhfried et al. (2015)
  Henry solubility constant Hcp: 0.00038

## Clc1ccc(Cl)c(-c2ccccc2Cl)c1 [2,2',5-trichlorobiphenyl]
[1]; reference: Murphy et al. (1983a)
  Henry solubility constant Hcp: 0.049

## FC1(F)C(F)(F)C(F)(F)C1(F)F [octafluorocyclobutane]
[1]; reference: Park et al. (1982)
  Henry solubility constant Hcp: 1.2e-06
[1]; [16]
  Henry solubility constant Hcp: 1.3e-06
[1]; [17]
  Henry solubility constant Hcp: 1.2e-06

## C=C(C)C1CCC2(C)OC2C1 (configuration not stated) [limonene oxide]
[1]; reference: Fichan et al. (1999)
  Henry solubility constant Hcp: 0.056

## CCSC [ethyl methyl sulfide]
[1]; [11]
  Henry solubility constant Hcp: 0.0042
